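Compound exposure: 48 hours, 5 concentrations, 96-well plates. Abbreviation: GI50, concentration required for 50% inhibition of growth. TGI: concentration producing complete growth inhibition.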
Columns and labels:
Assay in all cases: inhibition of tumour cell growth, NCI panel, 48 h
786-0 renal = system: 786-0 renal
A498 renal = system: A498 renal
A549 NSCLC = system: A549 NSCLC
ACHN renal = system: ACHN renal
BT-549 breast = system: BT-549 breast
CAKI-1 renal = system: CAKI-1 renal
CCRF-CEM leukemia = system: CCRF-CEM leukemia
COLO 205 colon = system: COLO 205 colon
DU-145 prostate = system: DU-145 prostate
EKVX NSCLC = system: EKVX NSCLC
HCC-2998 colon = system: HCC-2998 colon
HCT-116 colon = system: HCT-116 colon
HCT-15 colon = system: HCT-15 colon
HL-60(TB) leukemia = system: HL-60(TB) leukemia
HOP-62 NSCLC = system: HOP-62 NSCLC
HOP-92 NSCLC = system: HOP-92 NSCLC
HS 578T breast = system: HS 578T breast
HT29 colon = system: HT29 colon
IGROV1 ovarian = system: IGROV1 ovarian
K-562 leukemia = system: K-562 leukemia
KM12 colon = system: KM12 colon
LOX IMVI melanoma = system: LOX IMVI melanoma
M14 melanoma = system: M14 melanoma
MALME-3M melanoma = system: MALME-3M melanoma
MCF7 breast = system: MCF7 breast
MDA-MB-231 breast = system: MDA-MB-231 breast
MDA-MB-435 = system: MDA-MB-435
MOLT-4 leukemia = system: MOLT-4 leukemia
NCI-H226 lung = system: NCI-H226 lung
NCI-H23 lung = system: NCI-H23 lung
NCI-H460 lung = system: NCI-H460 lung
NCI-H522 lung = system: NCI-H522 lung
NCI/ADR-RES ovarian = system: NCI/ADR-RES ovarian
OVCAR-3 ovarian = system: OVCAR-3 ovarian
OVCAR-4 ovarian = system: OVCAR-4 ovarian
OVCAR-5 ovarian = system: OVCAR-5 ovarian
OVCAR-8 ovarian = system: OVCAR-8 ovarian
PC-3 prostate = system: PC-3 prostate
RPMI-8226 leukemia = system: RPMI-8226 leukemia
RXF 393 renal = system: RXF 393 renal
SF-268 CNS = system: SF-268 CNS
SF-295 CNS = system: SF-295 CNS
SF-539 CNS = system: SF-539 CNS
SK-MEL-2 melanoma = system: SK-MEL-2 melanoma
SK-MEL-28 melanoma = system: SK-MEL-28 melanoma
SK-MEL-5 melanoma = system: SK-MEL-5 melanoma
SK-OV-3 ovarian = system: SK-OV-3 ovarian
SN12C renal = system: SN12C renal
SNB-19 CNS = system: SNB-19 CNS
SNB-75 CNS = system: SNB-75 CNS
SR leukemia = system: SR leukemia
SW-620 colon = system: SW-620 colon
T-47D breast = system: T-47D breast
TK-10 renal = system: TK-10 renal
U251 CNS = system: U251 CNS
UACC-257 melanoma = system: UACC-257 melanoma
UACC-62 melanoma = system: UACC-62 melanoma
UO-31 renal = system: UO-31 renal

For `OCCNC(=S)Nc1ccc(-c2nc(N3C[C@H]4CC[C@@H](C3)O4)c3cccn3n2)cc1`, which GI50 (786-0 renal) is on record?
The GI50 was 0.0677 µM.

What about the TGI (786-0 renal) of the same compound?
Its TGI is 12.8 µM.

And the GI50 (A498 renal)?
Its GI50 is < 0.01 µM.

And the TGI (A498 renal)?
Its TGI is 0.0307 µM.

And the GI50 (A549 NSCLC)?
Its GI50 is 0.0856 µM.

What about the TGI (A549 NSCLC) of the same compound?
The TGI was 2.75 µM.

And the GI50 (ACHN renal)?
Its GI50 is 0.0502 µM.

And the TGI (ACHN renal)?
Its TGI is 1.86 µM.

What about the GI50 (BT-549 breast) of the same compound?
The GI50 was 0.021 µM.

And the TGI (BT-549 breast)?
Its TGI is 0.507 µM.

What about the GI50 (CAKI-1 renal) of the same compound?
Its GI50 is 0.132 µM.

And the TGI (CAKI-1 renal)?
The TGI was > 37.8 µM.

And the GI50 (CCRF-CEM leukemia)?
The GI50 was 0.153 µM.

What about the TGI (CCRF-CEM leukemia) of the same compound?
Its TGI is > 40.6 µM.

What about the GI50 (COLO 205 colon) of the same compound?
Its GI50 is 0.0365 µM.

What about the TGI (COLO 205 colon) of the same compound?
Its TGI is 1.69 µM.

What about the GI50 (DU-145 prostate) of the same compound?
Its GI50 is 0.0987 µM.

What about the TGI (DU-145 prostate) of the same compound?
The TGI was 24.2 µM.

And the GI50 (EKVX NSCLC)?
Its GI50 is 0.0629 µM.

What about the TGI (EKVX NSCLC) of the same compound?
The TGI was 6.59 µM.

What about the GI50 (HCC-2998 colon) of the same compound?
The GI50 was 0.0779 µM.

What about the TGI (HCC-2998 colon) of the same compound?
The TGI was 18.6 µM.

What about the GI50 (HCT-116 colon) of the same compound?
Its GI50 is 0.357 µM.

What about the TGI (HCT-116 colon) of the same compound?
The TGI was 21.7 µM.

And the GI50 (HCT-15 colon)?
The GI50 was 0.0906 µM.

What about the TGI (HCT-15 colon) of the same compound?
The TGI was 14.4 µM.

And the GI50 (HL-60(TB) leukemia)?
Its GI50 is 1.22 µM.

What about the TGI (HL-60(TB) leukemia) of the same compound?
The TGI was > 32.5 µM.

What about the GI50 (HOP-62 NSCLC) of the same compound?
Its GI50 is 0.0324 µM.

What about the TGI (HOP-62 NSCLC) of the same compound?
Its TGI is 0.662 µM.

And the GI50 (HOP-92 NSCLC)?
Its GI50 is < 0.0133 µM.

And the TGI (HOP-92 NSCLC)?
Its TGI is 0.161 µM.

What about the GI50 (HS 578T breast) of the same compound?
Its GI50 is 0.0221 µM.

What about the TGI (HS 578T breast) of the same compound?
Its TGI is 0.248 µM.

What about the GI50 (HT29 colon) of the same compound?
The GI50 was 0.117 µM.

And the TGI (HT29 colon)?
Its TGI is 22.5 µM.

And the GI50 (IGROV1 ovarian)?
The GI50 was 0.0165 µM.

And the TGI (IGROV1 ovarian)?
The TGI was 0.15 µM.

What about the GI50 (K-562 leukemia) of the same compound?
The GI50 was 0.266 µM.

And the TGI (K-562 leukemia)?
The TGI was > 37.6 µM.

What about the GI50 (KM12 colon) of the same compound?
Its GI50 is 0.0987 µM.

What about the TGI (KM12 colon) of the same compound?
The TGI was 12.6 µM.

And the GI50 (LOX IMVI melanoma)?
Its GI50 is 0.202 µM.

What about the TGI (LOX IMVI melanoma) of the same compound?
Its TGI is 7.65 µM.

And the GI50 (M14 melanoma)?
The GI50 was 0.0654 µM.

What about the TGI (M14 melanoma) of the same compound?
The TGI was 5.93 µM.

And the GI50 (MALME-3M melanoma)?
The GI50 was < 0.01 µM.

What about the TGI (MALME-3M melanoma) of the same compound?
The TGI was 0.055 µM.

What about the GI50 (MCF7 breast) of the same compound?
Its GI50 is 0.0231 µM.

And the TGI (MCF7 breast)?
Its TGI is 11.4 µM.

And the GI50 (MDA-MB-231 breast)?
The GI50 was 0.0583 µM.

And the TGI (MDA-MB-231 breast)?
The TGI was 6.57 µM.

What about the GI50 (MDA-MB-435) of the same compound?
Its GI50 is 0.0597 µM.

What about the TGI (MDA-MB-435) of the same compound?
The TGI was 2.86 µM.

What about the GI50 (MOLT-4 leukemia) of the same compound?
Its GI50 is 0.09 µM.

What about the TGI (MOLT-4 leukemia) of the same compound?
Its TGI is 17.1 µM.

What about the GI50 (NCI-H226 lung) of the same compound?
Its GI50 is 0.0305 µM.

And the TGI (NCI-H226 lung)?
Its TGI is 0.714 µM.

What about the GI50 (NCI-H23 lung) of the same compound?
The GI50 was 0.0798 µM.

What about the TGI (NCI-H23 lung) of the same compound?
Its TGI is 16.7 µM.

And the GI50 (NCI-H460 lung)?
Its GI50 is 0.0312 µM.

And the TGI (NCI-H460 lung)?
The TGI was 19.4 µM.

What about the GI50 (NCI-H522 lung) of the same compound?
Its GI50 is 0.029 µM.

And the TGI (NCI-H522 lung)?
Its TGI is 3.37 µM.

What about the GI50 (NCI/ADR-RES ovarian) of the same compound?
The GI50 was 0.172 µM.

And the TGI (NCI/ADR-RES ovarian)?
The TGI was 2.16 µM.

And the GI50 (OVCAR-3 ovarian)?
The GI50 was 0.0664 µM.

What about the TGI (OVCAR-3 ovarian) of the same compound?
The TGI was 4.39 µM.

And the GI50 (OVCAR-4 ovarian)?
Its GI50 is 0.0389 µM.

What about the TGI (OVCAR-4 ovarian) of the same compound?
The TGI was 0.63 µM.

And the GI50 (OVCAR-5 ovarian)?
Its GI50 is 0.0379 µM.

And the TGI (OVCAR-5 ovarian)?
The TGI was 15.3 µM.

What about the GI50 (OVCAR-8 ovarian) of the same compound?
The GI50 was 0.173 µM.

And the TGI (OVCAR-8 ovarian)?
The TGI was 3.16 µM.

What about the GI50 (PC-3 prostate) of the same compound?
Its GI50 is 0.0284 µM.

What about the TGI (PC-3 prostate) of the same compound?
The TGI was 8.13 µM.

And the GI50 (RPMI-8226 leukemia)?
The GI50 was 0.0371 µM.

And the TGI (RPMI-8226 leukemia)?
The TGI was 1.47 µM.

And the GI50 (RXF 393 renal)?
The GI50 was < 0.0135 µM.

What about the TGI (RXF 393 renal) of the same compound?
Its TGI is 0.131 µM.

What about the GI50 (SF-268 CNS) of the same compound?
The GI50 was 0.079 µM.

And the TGI (SF-268 CNS)?
The TGI was 25.8 µM.

What about the GI50 (SF-295 CNS) of the same compound?
The GI50 was 0.0328 µM.

What about the TGI (SF-295 CNS) of the same compound?
Its TGI is 0.265 µM.

What about the GI50 (SF-539 CNS) of the same compound?
The GI50 was 0.108 µM.

What about the TGI (SF-539 CNS) of the same compound?
The TGI was 0.767 µM.

What about the GI50 (SK-MEL-2 melanoma) of the same compound?
Its GI50 is 0.0637 µM.

And the TGI (SK-MEL-2 melanoma)?
Its TGI is 0.579 µM.

What about the GI50 (SK-MEL-28 melanoma) of the same compound?
The GI50 was 0.028 µM.

What about the TGI (SK-MEL-28 melanoma) of the same compound?
The TGI was 0.499 µM.

And the GI50 (SK-MEL-5 melanoma)?
Its GI50 is 0.0668 µM.

And the TGI (SK-MEL-5 melanoma)?
Its TGI is 0.642 µM.

And the GI50 (SK-OV-3 ovarian)?
The GI50 was 0.0162 µM.

And the TGI (SK-OV-3 ovarian)?
The TGI was 0.104 µM.

And the GI50 (SN12C renal)?
The GI50 was 0.0617 µM.

What about the TGI (SN12C renal) of the same compound?
The TGI was 16.9 µM.

What about the GI50 (SNB-19 CNS) of the same compound?
The GI50 was 0.189 µM.

And the TGI (SNB-19 CNS)?
Its TGI is 13.2 µM.

What about the GI50 (SNB-75 CNS) of the same compound?
The GI50 was < 0.0124 µM.

And the TGI (SNB-75 CNS)?
Its TGI is 0.264 µM.

What about the GI50 (SR leukemia) of the same compound?
The GI50 was 0.082 µM.

And the TGI (SR leukemia)?
Its TGI is > 38 µM.

And the GI50 (SW-620 colon)?
Its GI50 is 0.203 µM.

And the TGI (SW-620 colon)?
The TGI was 13.8 µM.

And the GI50 (T-47D breast)?
The GI50 was < 0.01 µM.

And the TGI (T-47D breast)?
The TGI was 0.0389 µM.

What about the GI50 (TK-10 renal) of the same compound?
Its GI50 is 0.0269 µM.

And the TGI (TK-10 renal)?
The TGI was 0.399 µM.

And the GI50 (U251 CNS)?
The GI50 was 0.114 µM.

And the TGI (U251 CNS)?
Its TGI is 11.6 µM.

What about the GI50 (UACC-257 melanoma) of the same compound?
Its GI50 is 0.0354 µM.

And the TGI (UACC-257 melanoma)?
The TGI was 0.467 µM.

What about the GI50 (UACC-62 melanoma) of the same compound?
The GI50 was 0.018 µM.

And the TGI (UACC-62 melanoma)?
The TGI was 0.194 µM.

And the GI50 (UO-31 renal)?
The GI50 was < 0.0152 µM.

What about the TGI (UO-31 renal) of the same compound?
The TGI was 0.194 µM.
